Reference: EP4741374A1, “TREPROSTINIL DERIVATIVE, AND PREPARATION METHOD THEREFOR AND USE THEREOF” (CF PharmTech HongKong Limited, priority 2023, dated 2025)

How the values were obtained:
[1] = test system: SD rats; experiment: U46619-induced rat acute pulmonary arterial pressure rise model, low-dose airway nebulized administration (RVSP); type: in vivo; details: 1 hour after low-dose airway nebulized administration (about 3 µg/kg, equimolar)
From the text: In this experiment, airway nebulized administration dosages of the compounds were about 1/7 of airway nebulized administration dosages in Experimental Example 5. By using a U46619-induced rat acute pulmonary arterial pressure rise model, antihypertensive effects of the compounds of the present invention after airway nebulized administration were further verified by reducing the administration dosages.
A model construction method was the same as that described in Experimental Example 5. In this experiment, dosages of groups were as follows: the dosage of compound C16-TR group was 3 µg/kg, and the dosages of equimolar compounds Ia-1, Ia-2 and Ia-3 were 3.0 µg/kg, 3.2 µg/kg and 3.3 µg/kg respectively.
The SD rats were anesthetized and then administered by airway nebulization, and then the basic right ventricular systolic pressure (RVSP) was measured by right cardiac catheterization. The SD rats were intravenously injected with U46619 (25 µg /kg) at 1 hour after airway nebulized administration of each compound, a peak value of RVSP rise after injection with U46619 was observed and recorded, and the inhibition percentage on the RVSP rise was calculated by comparing with the basic RVSP value. The number of experimental animals in each group was 1~2.

[2] = target: T1, EP2 receptor (Homo sapiens, UniProt P43116); experiment: Competitive binding to EP2 receptor against radiolabeled ligand 3H-PGE2; details: 8 concentrations from 10 µM, 10-fold dilutions
T1 construct: purchased Merck HTS185M
T1 sequence (P43116 whole entry): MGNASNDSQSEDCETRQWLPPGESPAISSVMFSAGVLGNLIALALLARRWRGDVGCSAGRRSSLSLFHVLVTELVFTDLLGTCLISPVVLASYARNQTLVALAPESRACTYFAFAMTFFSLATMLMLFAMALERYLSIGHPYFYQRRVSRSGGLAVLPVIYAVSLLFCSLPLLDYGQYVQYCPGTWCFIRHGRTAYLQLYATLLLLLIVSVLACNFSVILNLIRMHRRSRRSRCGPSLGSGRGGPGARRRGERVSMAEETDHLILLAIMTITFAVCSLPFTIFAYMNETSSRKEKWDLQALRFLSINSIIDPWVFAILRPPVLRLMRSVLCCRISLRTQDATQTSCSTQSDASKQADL
Description: This experiment was carried out in 96-well plates to evaluate the binding affinity of the compounds of the present invention (Ia-1, Ia-2 and Ia-3) to the prostaglandin EP2 receptor by testing their ability of competitive binding to the EP2 receptor with the radiolabeled ligand ^3H-PGE2. Treprostinil was used as control. MicroBeta2 was used to detect the number of ^3H captured, and Prism software was used to analyze data. The EP2 film (Merck, Cat# HT[…], batch number 2121326) was diluted with a buffer (50 mM Hepes, PH=7.4, 5 mM MgCl2, 1 mM CaCl2, 0.5% BSA) to a final concentration of 75 μg/mL. ^3H-PGE2 was diluted to 15 nM. Test compound and control compound solutions with an initial concentration of 10 μM were prepared, and subjected to 10-fold continuous gradient dilution, with a total of 8 concentrations for testing. 5%DMSO was used as a solvent control group. 1 μL of each compound solution was added into a corresponding position in the 96-well test plate, and each well was added with 50 μL of the EP2 film (about 3.75 μg/well), and added with 50 μ L of ^3H-PGE2. Then, the well plate was sealed, and incubated with shaking at 300 rpm at room temperature for 2 hours. After finishing the incubation, GF/C plates were filtered with Perkin Elmer Filtermate Harvester, and then each plate was washed with cold eluent for 4 times, and dried at 50°C for 1 hour. After drying, bottoms of wells of the filter plate were sealed with a PerkinElmer Unifilter-96 backing tape. 50 μL of Perkin Elmer Microscint O was added. The top of the filter plate was sealed with Perkin Elmer TopSeal-A sealing film. The number of ^3H captured was detected by MicroBeta2.

[3] = target: T2, IP receptor (Homo sapiens, UniProt P43119); experiment: In-vitro agonist activity on IP receptor, FLIPR calcium test in IP/HEK293 cells; type: cell-based; details: 10 concentrations, 10-fold dilutions
T2 construct: host or cells: HEK293 (IP/HEK293 cell line)
T2 sequence (P43119 whole entry): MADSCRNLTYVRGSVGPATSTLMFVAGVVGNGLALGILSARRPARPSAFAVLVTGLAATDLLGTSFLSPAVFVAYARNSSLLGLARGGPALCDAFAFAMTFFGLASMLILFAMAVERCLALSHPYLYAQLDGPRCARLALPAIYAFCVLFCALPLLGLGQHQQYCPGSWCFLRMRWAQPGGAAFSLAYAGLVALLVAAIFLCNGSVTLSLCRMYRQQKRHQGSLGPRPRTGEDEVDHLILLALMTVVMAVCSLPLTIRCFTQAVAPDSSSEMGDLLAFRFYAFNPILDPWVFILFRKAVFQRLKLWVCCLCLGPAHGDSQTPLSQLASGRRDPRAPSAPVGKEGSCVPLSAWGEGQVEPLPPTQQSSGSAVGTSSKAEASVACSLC
Description: The specific method is as follows: The IP/HEK293 cell line was provided by WuXi AppTec (Shanghai) Co., Ltd. Well-grown IP/HEK293 cells were taken out from the incubator, the culture solution was aspirated, the cells were washed with D-PBS and digested with trypsin EDTA, and then added with a cell culture solution, and the cells were fully suspended by repeated pipetting. The cells were centrifuged at room temperature, the supernatant was aspirated, a culture medium was added, and the cells were resuspended by repeated pipetting with a sterile pipette. After counting living cells with Vi-CELL™, 20 µL (20,000 cells/well) of cell suspension was added to a 384-well cell culture plate and incubated in a 5% CO2 incubator at 37°C overnight. 1 mL of FLIPR test buffer was added with 77 mg of probenecid to prepare 250 mM probenecid solution. After thawing a bottle of 2XFluo-4 DirectTM (F10471), the bottle was added with 10 mL of FLIPR test buffer containing 500 uM AEBSF, and each 10 mL of Fluo-Direct was added with 0.2 mL of probenecid, with a final concentration of 2.5 mM. The mixture was vortexed and then allowed to stand in the dark for more than 5 minutes. Each compound was placed in a water bath at 25°C for 30 minutes. Then, these compounds were sequentially diluted 10-fold with Bravo, with a total of 10 concentrations, for testing. 750 nL of each compound was transferred to a 384-well compound plate with ECHO. Then, the compound plate was added with 30 µL of detection buffer. The 384-well cell culture plate was taken out from the incubator, the culture medium was discarded, and 20 µL of test buffer and 20 µL of 2X Fluo-4 DirectTM No-Wash loading buffer were added with a pipette. The cell culture plate was incubated in a 5% CO2 incubator at 37°C for 50 minutes and incubated at room temperature for 10 minutes. The cell culture plate, the compound plate and a tip box were placed into FLIPR, FLIPRTETRA test program was operated, 10 µL of reference compound and 10 µL of test compound were aspirated from the compound plate to the cell culture plate, fluorescence signals were read, and then data were processed. The data were analyzed by using Prism.

CCCCC[C@H](O)CC[C@@H]1[C@H]2Cc3cccc(OCC(=O)OCCCCCCCCOCCCCc4ccccc4)c3C[C@H]2C[C@H]1O [Compound Ia-2]
Inhibition percentage on RVSP rise (%) (mean) [1]: 65.78%
binding to the EP2 receptor (competition with 3H-PGE2) [2]: no detectable binding
agonist activity on IP receptor [3]: no agonist activity
